According to patent US20260069696A1, “Combined therapy of photodynamic therapy and immune checkpoint inhibitor” (Shanghai Guang Sheng Pharmaceutical Co., Ltd., priority 2023, published 2026):

Test system: human esophageal cancer Eca-109 nude mouse xenograft tumor
Assay: Efficacy of DVDMS-PDT combined with PD-1 antibody in mouse model of human esophageal cancer Eca-109
Type: in vivo, nu/nu nude mice
Conditions: Only received DVDMS-PDT, DVDMS 2 mg/kg, laser 70 J/cm2, Day 21
From the text: Example 1. Efficacy of combined therapy of sodium porphyrine-mediated photodynamic therapy (DVDMS-PDT) with PD-1 antibody in a mouse model of human esophageal cancer Eca-109
Purpose: observe the growth-inhibiting effect of DVDMS-PDT combined with PD-1 antibody (Pembrolizumab) on human esophageal cancer Eca-109 nude mouse xenograft tumor, optimize the time window between DVDMS-PDT and PD-1 antibody treatment, and provide a reference for clinical application.
Harvest human esophageal cancer Eca-109 cells at logarithmic growth phase and dilute with culture medium to a cell concentration of 5*10^7 cells/mL, and inoculate subcutaneously at the right thigh root of nude mice at an injection of 0.1 mL per nude mouse. And 7-10 days later, grow the subcutaneous tumor at the root of the thigh on the right side of the nude mouse until the diameter is about 5-8 mm for later use.
Select qualified tumor-bearing mouse models as described above, measure the length and the width of the tumors using a vernier caliper, and stratify and group the mice according to tumor size, with 6 mice in each group. Prepare the sodium porphyrine DVDMS-2 for injection 24 hours before the experiment, and refrigerate in the dark before use. Administer DVDMS-2 via tail vein at a dose of 2 mg/kg body weight (Day-1), followed by PDT treatment 24 hours later (Day 0). […]

## C=CC1=C(C)c2cc3[nH]c(cc4nc(cc5[nH]c(cc1n2)c(C)c5C(C)OC(C)C1=C(C)c2cc5[nH]c(cc6nc(cc7[nH]c(cc1n2)c(C)c7CCC(=O)[O-])C(CCC(=O)[O-])=C6C)c(C)c5C=C)C(C)=C4CCC(=O)[O-])c(CCC(=O)[O-])c3C.[Na+].[Na+].[Na+].[Na+] (centres unmarked) [DVDMS-PDT, bis [1-[6,7-sodium dipropionate-1,3,5,8-tetramethyl-2-vinyl-4-porphine]ethyl]ether]
  Tumor growth inhibition rate(%): 66.8%
In g (unit assumed)
  Tumor weight: 0.43 ± 0.58
